The values below come from patent US9512114B2, “Substituted aminopyrimidine compounds and methods of use” (Calitor Sciences, LLC, priority 2013, dated 2016).

Each structure is given as a SMILES string.

Data set [1] in a line: Compound stability in human liver microsomes. It is filed as in vitro ADME. To be noted: pH 7.4; for CLint scaled at 5 μM: liver microsomes, in vivo CLint extrapolated from human liver microsome incubation; for half-life at 5 μM: human liver microsomes 0.5 mg protein/mL, compound 5 μM, NADPH 1.0 mM, 37° C., read-out: Human T1/2. A digest of the protocol: (§1)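 Human or rat liver microsomes (0.5 mg protein/mL) incubated with compound (5 μM) and NADPH (1.0 mM) in 100 mM potassium phosphate, pH 7.4, 0.05% DMSO, 37° C, sampled 0–60 min and quenched with cold acetonitrile. Remaining compound quantified by LC/MS/MS as % of time zero; CLint extrapolated.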

A short description of data set [2]: Compound stability in rat liver microsomes. It is filed as in vitro ADME. To be noted: pH 7.4; for CLint scaled at 5 μM: liver microsomes, in vivo CLint extrapolated from rat liver microsome incubation; for half-life at 5 μM: rat liver microsomes 0.5 mg protein/mL, compound 5 μM, NADPH 1.0 mM, 37° C., read-out: Rat T1/2. The gist of the method: as §1
Data set [3] can be described thus: Pharmacokinetic profiles in dogs. To be noted: Dog; for clearance / AUC(0-t) / half-life / Vd: iv dosing 1 mg/kg; for F: oral vs iv (iv 1 mg/kg; p.o. generally 10 mg/kg); for AUC(0-t) / half-life / Vd: plasma; for Vd: read-out: Vss. Format: in vivo. The protocol:
(§2) The compounds disclosed herein are assessed in pharmacokinetic studies in mice, rats, dogs or monkeys. The compounds are administered as a water solution, 2% HPMC+1% TWEEN®80 in water solution, 5% DMSO+5% solutol in saline, 4% MC suspension or capsule. For the intravenous administration, the animals are generally given at 1 or 2 mg/kg dose. For the oral (p.o.) dosing, mice and rats are generally given 5 or 10 mg/kg dose, and dogs and monkeys are generally given 10 mg/kg dose. The blood samples (0.3 mL) are drawn at 0.25, 0.5, 1.0, 2.0, 3.0, 4.0, 6.0, 8.0, 12 and 24 h time points or 0.083, 0.25, 0.5, 1.0, 2.0, 4.0, 6.0, 8.0 and 24 h time points and centrifuged at 3,000 or 4000 rpm for 2 to 10 min. The plasma solutions are collected, stored at −20° C. or −70° C. until analyzed by LC/MS/MS as described above.

Data set [4] can be described thus: Pharmacokinetic profiles in monkeys. It is filed as in vivo. To be noted: Monkey; for Cl/F / AUC(0-t) / half-life / Vd: iv dosing 1 mg/kg; for F: oral vs iv (iv 1 mg/kg; p.o. generally 10 mg/kg); for AUC(0-t) / half-life / Vd: plasma; for Vd: read-out: Vss. The procedure: as §2

As usually defined, the CLint scaled is the rate of metabolic loss divided by the concentration. As to `Cc1noc(-c2c(N)ncnc2N[C@@H](C)c2cc3cccc(-c4cnn(C)c4)c3c(=O)n2C2CC2)n1` [Ex. 26, (S)-3-(1-((6-amino-5-(3-methyl-1,2,4-oxadiazol-5-yl)pyrimidin-4-yl)amino)ethyl)-2-cyclopropyl-8-(1-methyl-1H-pyrazol-4-yl)isoquinolin-1 (2H)-one], in data set [1], the CLint scaled at 5 μM was 51.8 mL/min/kg and the half-life at 5 μM came out at 33.6 min. Also, in data set [2], the intrinsic metabolic clearance (CLint scaled) at 5 μM was 22.3 mL/min/kg and the half-life at 5 μM is 112 min.
Turning to `Cc1nnc(-c2c(N)ncnc2N[C@@H](C)c2cc3cccc(-c4cnn(C)c4)c3c(=O)n2C2CC2)o1` [Ex. 25, (S)-3-(1-((6-amino-5-(5-methyl-1,3,4-oxadiazol-2-yl)pyrimidin-4-yl)amino)ethyl)-2-cyclopropyl-8-(1-methyl-1H-pyrazol-4-yl)isoquinolin-1 (2H)-one], in data set [1], the CLint scaled at 5 μM is 28.1 mL/min/kg and the half-life at 5 μM was 61.9 min. Further, in data set [2], the CLint scaled at 5 μM is 14.5 mL/min/kg and the half-life at 5 μM is 171 min.
The clearance is the rate of elimination divided by the concentration. Broadly, the AUC(0-t) is the area under the concentration-time curve up to a stated or last time point. The low end stands for less exposure, the high end for more exposure. On to `Cc1noc(-c2c(N)ncnc2N[C@@H](C)c2cc3cccc(Cl)c3c(=O)n2-c2ccccc2)n1` [Ex. 8, (S)-3-(1-((6-amino-5-(3-methyl-1,2,4-oxadiazol-5-yl)pyrimidin-4-yl)amino)ethyl)-8-chloro-2-phenylisoquinolin-1(2H)-one], for which, in data set [1], the intrinsic metabolic clearance (CLint scaled) at 5 μM was 196 mL/min/kg and the half-life at 5 μM was determined as 8.88 min. In data set [3], the clearance was 12.2 mL/min/kg, the F was 52.85%, the area under the curve AUC(0-t) amounted to 1350 ng·h/mL and the half-life is 102 min. Moreover, the Vd in data set [3] turned out to be 1.43 L/kg. For the same molecule, in data set [4], the Cl/F stood at 24.3 mL/min/kg, the F worked out at 13.1%, the AUC(0-t) was 711 ng·h/mL and the half-life is 39 min. Further, in data set [4], the Vd is 1.2 L/kg. Further, in data set [2], the CLint scaled at 5 μM was 229 mL/min/kg and the half-life at 5 μM turned out to be 10.9 min.
Regarding `Cc1nnc(-c2c(N)ncnc2N[C@@H](C)c2cc3cccc(Cl)c3c(=O)n2-c2ccccc2)o1` [Ex. 9, (S)-3-(1-((6-amino-5-(5-methyl-1,3,4-oxadiazol-2-yl)pyrimidin-4-yl)amino)ethyl)-8-chloro-2-phenylisoquinolin-1(2H)-one], in data set [1], the intrinsic clearance (CLint scaled) at 5 μM was 83.7 mL/min/kg and the half-life at 5 μM turned out to be 20.8 min. Moreover, in data set [3], the clearance came to 23.7 mL/min/kg, the F was 72.99%, the AUC(0-t) worked out at 695 ng·h/mL and the half-life is 75 min. Moreover, the Vd in data set [3] turned out to be 2.04 L/kg. In data set [4], this molecule had a Cl/F of 14.8 mL/min/kg, an F of 179.7%, an AUC(0-t) of 1120 ng·h/mL and a half-life of 73.8 min. For the same molecule, the Vd in data set [4] turned out to be 1.17 L/kg. Moreover, in data set [2], the CLint scaled at 5 μM is 185 mL/min/kg and the half-life at 5 μM came out at 13.4 min.
In the case of `Cc1nnc(-c2c(N)ncnc2N[C@@H](C)c2cc3cccc(Cl)c3c(=O)n2C2CC2)o1` [Ex. 4, (S)-3-(1-((6-amino-5-(5-methyl-1,3,4-oxadiazol-2-yl)pyrimidin-4-yl)amino)ethyl)-8-chloro-2-cyclopropylisoquinolin-1(2H)-one], in data set [1], the CLint scaled at 5 μM was 85.3 mL/min/kg and the half-life at 5 μM is 20.4 min. Besides, in data set [2], the intrinsic clearance (CLint scaled) at 5 μM was 102 mL/min/kg and the half-life at 5 μM was found to be 24.4 min.
